Data set [1] relates to human immunodeficiency virus. Put plainly: In vitro activity against HIV, viral cytopathic effect. The format is cell-based. The procedure:
(§1) Compound 8 was evaluated by the National Cancer Institute for in vitro activity against human immunodeficiency virus (HIV: cell line:CEM-V). In this test the compound was screened using human "host" cells with and without virus. The test is conducted for seven days (during which time infected, non-drug treated control cells are largely or totally destroyed by the virus), and then the number of remaining viable cells are determined. […] A therapeutic index (TI) can be calculated as the IC/EC ratio.
A general note: Damage to the host cells serves as the signal in cytopathic effect assays.

For a further data set, the system named is CEM-V cells. Put plainly: Growth inhibition of normal, uninfected cells (HIV test). In kind it is cell-based. Conditions: Homo sapiens, 168 h. As to the method:
as §1

Another data set has as its system DNA and RNA viruses. Conditions: cited from earlier work.
For the next data set, the system named is L1210 leukemia. Conditions: mouse, in vivo; cited from earlier work.
The subject of data set [2] is Herpes 2, parainfluenza 3 and Vaccinia. The format is cell-based. The following applies: tested in parallel with ARPP (8).
The next data set addresses T1, WI-L2 adenosine kinase (Homo sapiens, UniProt P55263).
T1 construct: added to the cell-free WI-L2 lysate to give 5 μM final assay concentration; endogenous in cells; host or cells: WI-L2 B lymphoblast cells (cell-free lysate)
The experiment in a line: Adenosine kinase inhibition (filter binding assay). The format is biochemical. Conditions: decrease in rate of [14C]AMP formation from [14C]adenosine.

A short description of data set [3]: Anomerization in aqueous solution (reverse-phase HPLC). The format is physicochemical. Conditions: buffered, 37° C., 9 h, no added protein. As to the method: This would be expected where the rate of anomerization is slow compared to the rate of deamination.
The compounds of the invention are capable of crossing the cell membrane, and activated to the 5'-phosphate, thus causing the inhibition of the de novo purine biosynthesis.
HPLC Analysis: Sample components were separated with an LKB model 2150 gradient HPLC system at ambient temperature on an Altex Ultrashere-ODS reverse phase column (Beckman) developed with a linear gradient of buffer A (10 mM KPO4 ', pH 3.83) to 20% component B (60% aqueous CH3 CN) at a combined flow rate of 1.0 mL/min over 15 min. Ultraviolet (UV) absorbance was monitored with an LKB model 2140 diode array detector. Inhibition of de novo purine biosynthesis: WI-L2 or adenosine kinase-deficient cells were preincubated at 37° C. with drug for various time periods prior to labeling with [^14 C]formate. Enzyme Assays: Adenosine kinase inhibition studies were accomplished by the filter binding assay method. Inhibition studies were done at 37° C. with an assay mixture containing 4 mM ATP, 1.5 mM MgCl2, 5 or 10 μM [8-^14 C] adenosine (50 mCi/mmol) and 100 mM Tris-maleate, pH 5.5. To prevent the enzymatic breakdown of adenosine, erythro-9-(2-hydroxy-3-nonyl)adenine (EHNA) was added to the cell-free WI-L2 lysate to give 5 μM final assay concentration. The assay was started by the addition of protein. The amount of enzyme, time of assay and sampling volume were adjusted to give acceptable conversion of [8-^14 C] adenosine to [8-^14 C]AMP. Each DE-81 filter was spotted with a constant sampling volume and immersed in H 2 O (4 L) to terminate the reaction. Filters were washed three times with H2 O (4 L) and once with EtOH (100 mL). Dry filters were placed in scintillation vials and radioactivity was counted with 10 mL toluene-based scintillation cocktail.

A short description of another data set: in vivo. Conditions: mouse, ip.

Molecules are shown by their SMILES.

Consider two compounds from patent US5041542A, “Substituted pyrimido[5,4-d]pyrimidine nucleosides” (Nucleic Acid Research Institute, priority 1988, dated 1991).

By EC50 is commonly meant the concentration needed to bring the measured effect to its halfway point. By EC90 is commonly meant the point of the concentration-response curve where the effect stands at 90%. As a reminder, the IC50 is the concentration that gives 50% inhibition. Broadly, the IC90 is the concentration at which the effect reaches the 90% level. Lower therefore signals greater potency.

T1 sequence (P55263 whole entry): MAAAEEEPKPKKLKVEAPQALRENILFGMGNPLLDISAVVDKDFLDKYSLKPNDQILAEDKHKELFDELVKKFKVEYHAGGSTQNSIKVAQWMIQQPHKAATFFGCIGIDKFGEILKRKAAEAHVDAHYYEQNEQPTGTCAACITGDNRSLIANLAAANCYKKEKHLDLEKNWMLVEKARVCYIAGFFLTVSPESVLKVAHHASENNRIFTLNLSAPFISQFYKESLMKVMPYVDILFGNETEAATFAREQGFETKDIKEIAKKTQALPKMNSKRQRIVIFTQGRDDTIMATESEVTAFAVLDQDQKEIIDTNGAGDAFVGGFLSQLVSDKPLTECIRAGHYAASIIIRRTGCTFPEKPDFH

With `Nc1ncnc2c(N[C@@H]3O[C@H](CO)[C@@H](O)[C@H]3O)ncnc12` [Compound 8, 4-Amino-8-(β-D-ribofuranosylamino)pyrimido[5,4-d]pyrimidine, reference compound], the EC50 in data set [1] (Human immunodeficiency virus 1, 168 h, read-out: EC50 (50% reduction of viral cytopathic effect)) amounted to 0.0951 µM. For the same compound, in data set [1] (Human immunodeficiency virus 1, 168 h, HIV, CEM-V cells, seven days, read-out: EC90 (90% reduction of viral cytopathic effect)), the EC90 came to 0.768 µM. Further, in data set [1] (IC50/EC50, HIV, CEM-V, 10080 min), the “therapeutic index at 50% (IC/EC ratio)” value is 2.05×10^1. Further, the “therapeutic index at 90% (IC/EC ratio)” value in data set [1] (IC90/EC90, HIV, CEM-V, 10080 min) is listed as 8.60×10^0. The IC50 in the data set on CEM-V cells (read-out: IC50 (50% growth inhibition), seven days) worked out at 1.95 µM. In addition, in the data set with CEM-V cells (seven days), the IC90 turned out to be 6.6 µM. In addition, the “antiviral activity in cell culture (cited)” value in the data set with DNA and RNA viruses is “antiviral activity for DNA and RNA viruses in cell culture by inhibiting viral protein synthesis”. Besides, the “growth of L1210 leukemia in mice (cited)” value with L1210 leukemia is given as “inhibits the growth of L1210 leukemia in mice”.
`COc1ncnc2c(N[C@@H]3O[C@H](CO)[C@@H](O)[C@H]3O)ncnc12` [Compound 14, 4-Methoxy-8-(β-D-ribofuranosylamino)pyrimido[5,4-d]pyrimidine]: the “Antiviral activity in cell culture” value in data set [2] is on record as “antiviral activity”. The “direct inhibition of adenosine kinase” value on WI-L2 adenosine kinase was “Direct inhibition”. In data set [3], the “21 (anomeric mixture) formed from compound 14” value was 0.42% and the “α-anomer 17 formed from compound 14” value is 1.35%. Moreover, in “in vivo”, the MTD worked out at 62 mg/kg.
